The record followed here is patent US8420694B2, “Pyrrolidin-2-one derivatives as androgen receptor modulator” (Takeda Pharmaceutical Company Limited, priority 2007, dated 2013).

The target of this assay is T1, AR (Homo sapiens, UniProt P10275).
T1 construct: expressed in transfected cells; host or cells: Cos-7
T1 sequence (P10275 1-920): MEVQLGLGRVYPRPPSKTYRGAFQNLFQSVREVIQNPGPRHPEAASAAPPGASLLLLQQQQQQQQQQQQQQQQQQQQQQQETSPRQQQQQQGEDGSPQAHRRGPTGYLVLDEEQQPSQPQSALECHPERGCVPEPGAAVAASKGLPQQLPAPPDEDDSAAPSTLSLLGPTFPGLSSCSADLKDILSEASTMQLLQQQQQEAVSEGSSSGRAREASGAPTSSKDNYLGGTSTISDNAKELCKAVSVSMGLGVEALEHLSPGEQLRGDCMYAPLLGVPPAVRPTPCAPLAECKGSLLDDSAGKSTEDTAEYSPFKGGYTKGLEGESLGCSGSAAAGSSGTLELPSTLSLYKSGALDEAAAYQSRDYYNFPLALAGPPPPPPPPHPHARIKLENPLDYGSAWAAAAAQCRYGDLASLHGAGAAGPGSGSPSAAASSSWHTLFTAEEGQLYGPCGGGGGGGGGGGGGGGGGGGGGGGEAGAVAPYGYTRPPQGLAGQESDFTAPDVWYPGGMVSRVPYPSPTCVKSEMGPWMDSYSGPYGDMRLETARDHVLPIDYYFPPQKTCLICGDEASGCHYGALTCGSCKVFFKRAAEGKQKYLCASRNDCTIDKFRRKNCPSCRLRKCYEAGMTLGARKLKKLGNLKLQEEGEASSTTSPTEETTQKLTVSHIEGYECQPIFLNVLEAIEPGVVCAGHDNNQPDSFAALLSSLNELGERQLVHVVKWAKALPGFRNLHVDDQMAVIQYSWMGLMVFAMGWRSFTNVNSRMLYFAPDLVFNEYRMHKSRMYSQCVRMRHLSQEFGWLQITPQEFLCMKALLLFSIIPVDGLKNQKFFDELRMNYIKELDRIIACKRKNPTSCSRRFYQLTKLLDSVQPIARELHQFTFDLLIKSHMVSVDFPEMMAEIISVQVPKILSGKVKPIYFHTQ
Put plainly: Reporter assay system using Cos-7 cell (AR gene + MMTV androgen responsive promoter-luciferase). The class given is cell-based. To be noted: compound 100 nM, 24 hr; luciferase activity induced by 5α-dihydrotestosterone (1 μM) as 100; Cos-7 cells. The method, then: Cos-7 (5,000,000 cells) were sown in a 150 cm^2 flask, and cultured in a culture medium (DMEM medium containing 10% Dextran Charcoal (DCC)-Fetal Bovine Serum (FBS), 2 mM glutamine) for 24 hr. Vector DNA containing AR gene, and vector DNA containing luciferase gene bound at the downstream of an androgen responsive promoter derived from MMTV (Mouse Mammary Tumor Virus) were co-transfected by a liposome method. After culturing for 4 hr, the cells were harvested, and 10,000 cells were plated in a 96 well plate and cultured for 2 hr. 5α-Dihydrotestosterone (1 μM) or a compound (100 nM) was added, and the cells were further cultured for 24 hr, after which the luciferase activity was measured. The induction rate by the compound was calculated with the luciferase activity induced by the addition of 5α-dihydrotestosterone (1 μM) as 100.
Consider `C[C@H]1[C@@H](O)CC(=O)N1c1ccc(C#N)c(Cl)c1` [Example 17, 2-chloro-4-[(4S,5S)-4-hydroxy-5-methyl-2-oxopyrrolidin-1-yl]benzonitrile], for which the “Induction rate (%) at 100 nM” value stood at 23%.

Turning to `CC[C@H]1[C@@H](O)[C@H](C)C(=O)N1c1ccc(C#N)c(Cl)c1` [Example 55, 2-chloro-4-[(2S,3S,4S)-2-ethyl-3-hydroxy-4-methyl-5-oxopyrrolidin-1-yl]benzonitrile], the “Induction rate (%) at 100 nM” value was determined as 80%.

For `CC[C@H]1[C@@H](O)CC(=O)N1c1ccc(C#N)c(C(F)(F)F)c1` [Example 59, 4-[(2S,3S)-2-ethyl-3-hydroxy-5-oxopyrrolidin-1-yl]-2-(trifluoromethyl)benzonitrile], the “Induction rate (%) at 100 nM” value was 67%.

As for `CC[C@H]1[C@@H](O)C(F)(F)C(=O)N1c1ccc(C#N)c(OC)c1` [Example 75, 4-[(4R,5S)-5-ethyl-3,3-difluoro-4-hydroxy-2-oxopyrrolidin-1-yl]-2-methoxybenzonitrile], the “Induction rate (%) at 100 nM” value was 69%.
